For data set [1], the system named is healthy subject (1 person) not suffering from constipation. The data set is described as follows: Test Example 1: transit time through the digestive tract by radio-opaque markers, with fecal weight and defecation frequency. Type of data set: in vivo, human. The settings on record: for Maximum Transit Time through Digestive Tract (average) / Transit Time through Digestive Tract (average): Standard Deviation in parentheses. An excerpt:
The method proposed by Hinton et al. was invented to measure the time required from food ingestion to defecation, namely, transit time through the digestive tract. More specifically, a plurality of radio-opaque markers were taken with a meal, and the time required from food ingestion to defecation (ti) and the number of markers contained in the evacuated feces (xi) were inspected based on x-ray images of the collected feces, followed by calculation of transit time through the digestive tract using the following formula. Transit time through the digestive tract indicates an average time required for a plurality of radio-opaque markers taken simultaneously to be evacuated. [formula]
A test sample in a dose shown in Table 1, together with 15 markers, were administered per day with meals to a healthy subject (1 person) not suffering from constipation, and the markers in the feces of the subject were identified thereafter. Test samples were administered for 3 days, and during which the transit times through the digestive tract of 5 or 6 meals were measured. Transit time through the digestive tract calculated by the above formula after each meal and the time required for the last marker to be evacuated (maximum transit time through the digestive tract) were recorded. […] Statistical treatment was performed using t-tests. In addition to the marker identification, the fecal weight and defecation frequency were recorded, and daily average fecal weight and defecation frequency were calculated, and shown in Table 1.

Another data set has as its system feces. The note with it: 3 g a day; statistically significant; cited from earlier work.
The next data set has as its system 5 subjects. The settings on record: liquid preparation 2.4 g per 100 ml, 70 ml (974 mg in terms of magnesium) a day; cited from earlier work.

The structures appear in SMILES notation.

For the compound `OC[C@H]1O[C@@H](O[C@@H]2[C@@H](CO)OC(O)(CO)[C@H]2O)[C@H](O)[C@@H](O)[C@H]1O` (mixture of isomers) [Lactulose], in data set [1] (Dose/Day 1 g), the “Average Defecation Frequency” value was found to be 1.8 times/day, the “Average Fecal Weight” value turned out to be 315 g/day, the “Maximum Transit Time through Digestive Tract (average)” value is 34.4 (9.4) hour and the “Transit Time through Digestive Tract (average)” value is reported as 21.8 (3.1) hour. In the data set with feces, the “Azoreductase activity in feces” value is reported as “lowered azoreductase activity”, the “Nitroreductase activity in feces” value is “lowered nitroreductase activity”, the “Number of the Bifidobacterium in feces” value is recorded as “increased number of the Bifidobacterium” and the “Putrefactive metabolites in feces” value is reported as “reduced putrefactive metabolites”. Also, the “β-glucuronidase activity in feces” value in the data set with feces is given as “lowered β-glucuronidase activity”.

Regarding `OC[C@H]1O[C@@H](O[C@H]2[C@H](O)[C@@H](O)[C@@H](O[C@]3(CO)O[C@H](CO)[C@@H](O)[C@@H]3O)O[C@@H]2CO)[C@H](O)[C@@H](O)[C@H]1O` [Lactosucrose], in data set [1] (Dose/Day 1.5 g), the “Average Defecation Frequency” value stood at 2.0 times/day, the “Average Fecal Weight” value came out at 267 g/day, the “Maximum Transit Time through Digestive Tract (average)” value is 31.3 (8.6) hour and the “Transit Time through Digestive Tract (average)” value is recorded as 19.7 (3.5) hour.

Consider `[O]=[Mg]` [Magnesium Oxide], for which the “Transit time and maximum transit time through the digestive tract (in words)” value in data set [1] (0.17 to 1.5 g a day, in comparison with no administration (control)) was “shortened transit time and maximum transit time through the digestive tract were observed”. Besides, in data set [1] (1.0 to 1.5 g intake a day), the “Average fecal weight (in words)” value is recorded as “more than doubled”. Besides, the Loose stools result is “caused loose stools having high a moisture content” in data set [1] (1.0 to 1.5 g intake a day) and “loose stools were not caused” in data set [1] (up to 0.75 g intake a day). In addition, the “Average Defecation Frequency” value in data set [1] (Dose/Day 0.17 g) stood at 2.3 times/day; in data set [1] (Dose/Day 0.35 g) it was 2.0 times/day; in data set [1] (Dose/Day 0.50 g), 2.3 times/day; in data set [1] (Dose/Day 0.75 g) it was 2.3 times/day; in data set [1] (Dose/Day 1.0 g) it was 2.0 times/day; in data set [1] (Dose/Day 1.5 g), 2.3 times/day. In addition, the “Average Fecal Weight” value is 274 g/day in data set [1] (Dose/Day 0.17 g); 204 g/day in data set [1] (Dose/Day 0.35 g); 313 g/day in data set [1] (Dose/Day 0.50 g); 235 g/day in data set [1] (Dose/Day 0.75 g); 414 g/day in data set [1] (Dose/Day 1.0 g); 426 g/day in data set [1] (Dose/Day 1.5 g). For the same compound, the “Maximum Transit Time through Digestive Tract (average)” value is 38.1 (10.1) hour in data set [1] (Dose/Day 0.17 g); 32.4 (7.6) hour in data set [1] (Dose/Day 0.35 g); 35.6 (6.9) hour in data set [1] (Dose/Day 0.50 g); 34.9 (7.2) hour in data set [1] (Dose/Day 0.75 g); 37.1 (8.2) hour in data set [1] (Dose/Day 1.0 g); 35.6 (6.4) hour in data set [1] (Dose/Day 1.5 g). The “Transit Time through Digestive Tract (average)” value in data set [1] (Dose/Day 0.17 g) is 20.6 (4.1) hour; in data set [1] (Dose/Day 0.35 g) it was 17.5 (3.1) hour; in data set [1] (Dose/Day 0.50 g), 21.6 (6.8) hour; in data set [1] (Dose/Day 0.75 g), 21.0 (4.3) hour; in data set [1] (Dose/Day 1.0 g), 22.9 (2.8) hour; in data set [1] (Dose/Day 1.5 g), 19.5 (1.9) hour.

Turning to `O=S(=O)([O-])[O-].[Mg+2]` [Magnesium Sulfate], in data set [1] (Dose/Day 4.5 g), the “Average Defecation Frequency” value was 2.3 times/day, the “Average Fecal Weight” value is listed as 389 g/day, the “Maximum Transit Time through Digestive Tract (average)” value is 35.8 (10.1) hour and the “Transit Time through Digestive Tract (average)” value is listed as 20.2 (2.4) hour. Moreover, the Cathartic effects entry in data set [1] (compared with magnesium oxide) is listed as “stronger cathartic effects than magnesium oxide”.

On to `OC[C@H]1O[C@H](OC[C@H]2O[C@H](O[C@]3(CO)O[C@H](CO)[C@@H](O)[C@@H]3O)[C@H](O)[C@@H](O)[C@@H]2O)[C@H](O)[C@@H](O)[C@H]1O` [Raffinose], for which, in data set [1] (Dose/Day 2 g), the “Average Defecation Frequency” value was 2.3 times/day, the “Average Fecal Weight” value was 243 g/day, the “Maximum Transit Time through Digestive Tract (average)” value is 31.0 (11.5) hour and the “Transit Time through Digestive Tract (average)” value is recorded as 22.2 (2.5) hour.

For the compound `[O]=[Mg]` [activated magnesium oxide], in the data set on 5 subjects, the Cathartic drug effect entry is given as “its cathartic drug effect was shown”.

These data come from patent US20080044493A1, “Agent For Ameliorating The Maximum Passage Time Through Digestive Tract, Agent For Ameliorating Passage Time Through Digestive Tract And Preventive For Colon Cancer” (priority 2004, published 2008).
